Data on 1 substance can be found in PMC2652713, “Molecular Blocking of CD23 Supports Its Role in the Pathogenesis of Arthritis” (PLoS ONE, 2009).

One data set relates to human CD23. Description: Flow cytometry, inhibition of anti-CD23-FITC McAb binding to human macrophages. The following applies: human PBL-derived CD23+ macrophages, p30A 10 µg/ml pre-incubation, anti-CD23-FITC 20 µg/ml. As to the method:
Figure 1 Specific blockade of CD23 reactivity by p30A. Flow cytometry analysis showing the inhibition of (A) anti-CD23-FITC (20 µg/ml) or (B) IgE (10 µg/ml)/anti-IgE-FITC (1 µg/ml) binding to CD23^+ human PBL-derived macrophages (red lines) or following their pre-incubation with p30A peptides (10 µg/ml) (blue lines). (C) CD23 western blot was performed on total protein extract from à CD23^+ B-cell line. The detection with CD23-McAb followed the pre-incubation of the blot with or without p30A (10 µg/ml). Similar protein quantity (50 µg) was used for each western blot condition.

Data set [1] relates to RA patients derived monocytes/macrophages. Description: Inflammatory mediator release from rheumatoid arthritis patients' monocytes/macrophages. The following applies: peripheral and synovial fluid monocytes/macrophages of 7 RA patients; 1 h pre-incubation, CD23 activation; 72 h. The data set is classed as cell-based, human. An excerpt:
Figure 5 p30A inhibits the production of CD23-dependent inflammatory mediator release in cells from rheumatoid arthritis (RA) patients. (A) PBL and synovial monocytes/macrophages from RA patients were labeled with anti-CD23-FITC or isotype-matched (Iso) McAb and compared to healthy PBL. Representative fluorescence intensity data obtained from one case, out of 11 distinct patients or healthy individuals. (B) Inhibition of inflammatory mediator release from RA patients derived monocytes/macrophages. PBL monocytes or macrophages collected from synovial liquid were activated through CD23 after 1 h pre-incubation with/without p30A or pCtl. Cell supernatants were collected 72 h later and nitrites, TNF-α and IL-6 were quantified. Values are expressed as mean±s.e.m from 7 patients' cells.
Peripheral blood samples pre-tested for the absence of HIV or hepatitis virus infections were obtained from healthy volunteers (EFS Aquitaine, Bordeaux Blood Bank). We also collected paired peripheral blood and synovial fluid from seven patients, who fulfilled the American College of Rheumatology criteria for RA, during arthritic crisis. Written informed consent was obtained from all the patients. This study was carried out in compliance with the Helsinski Declaration and was approved by the National Ethical Authorities. All seven patients had previously received conventional therapy but none has been given TNF blocker or any other biologic treatment for their condition. […]
Monocytes or macrophages were activated through CD23 pathway: while monocytes/macrophages from RA patients express CD23, monocytes from healthy donors must be pre-activated to express surface CD23 as described. […] Cells supernatants were then analyzed for their nitric oxide content (see below) and for the presence of cytokines: levels of TNF-α and IL-6 were determined in duplicates for each sample by a specific ELISA (R&D, Paris, France) while levels of IL-1β, IL-8 and IL-10 was determined using FlowCytomix Human Th1/Th2 Kit as recommended (Bender Medsystems, Vienna, Austria). […]

Data set [2] in a line: Weight and intestinal bleeding in AIA rats. The data set is classed as in vivo, rat, Female Lewis. The following applies: 50 days, data not shown. As to the method: Adjuvant arthritis was induced in six week-old animals by subcutaneous injection at the base of the tail of 300 µl containing 1.8 mg of inactivated Mycobacterium butyricum (Difco Laboratories, Detroit, MI) diluted in emulsion of 8 ml Vaseline, 1 ml polysorbate 80, and 1 ml PBS (Phosphate Buffer Saline, Eurobio). Rats were boosted one week later following the same procedure. Observation was conducted for up to 50 days following immunization for clinical signs of arthritis. Rats were divided in different groups of 8 rats. Groups were treated with five injections (every 2 days) of either p30A (10, 50 or 100 mg in a PBS solution), pCtl, hydrocortisone (Sigma Aldrich) or PBS solution. Injections were initiated two days after the appearance of first arthritic symptoms (therapeutic) or on the first day of immunization (preventive). […] The severity of AIA in each paw was quantified daily using an ordinal clinical score measurement from 0 to 4 as follows: no signs of inflammation ( = 0); swelling alone (>2 fold paw diameter) ( = 1) or swelling/immobility ( = 2) of one paw; swelling ( = 3) or swelling/immobility ( = 4) of two paws. Weight evolution of rats was measured daily. […] Quantification of TNF-α and IL-1β in rat cell supernatants was performed using appropriate ELISA kits and according to manufacturer's recommendations (Biosource, Montrouge, France).

On to FHENWPS [p30A], for which the “inhibition of FITC-conjugated anti-CD23 McAb binding” value with human CD23 is “inhibits the binding of FITC-conjugated anti-CD23 McAb”. In addition, in data set [1], the IL-6 release result was “reversed inflammatory mediators at the same levels than control cell-supernatants”, the TNF-α release entry was “reversed inflammatory mediators at the same levels than control cell-supernatants” and the “nitric oxide (nitrites) release” value is given as “reversed inflammatory mediators at the same levels than control cell-supernatants”. For the same substance, in data set [2], the intestinal bleeding entry is recorded as “neither intestinal bleeding was observed” and the weight loss result is given as “no weight loss”.
